Among the data in patent US9035056B2, “Pyrido[4,3-b]indole and pyrido[3,4-b]indole derivatives and methods of use” (Medivation Technologies, Inc., priority 2011, dated 2015) are inhibition values, retold here.

The target in test [1] is T1, human recombinant adrenergic α1D receptor (Homo sapiens, UniProt P25100).
T1 construct: expressed in transfected cells; host or cells: HEK-293
T1 sequence (P25100 1-572): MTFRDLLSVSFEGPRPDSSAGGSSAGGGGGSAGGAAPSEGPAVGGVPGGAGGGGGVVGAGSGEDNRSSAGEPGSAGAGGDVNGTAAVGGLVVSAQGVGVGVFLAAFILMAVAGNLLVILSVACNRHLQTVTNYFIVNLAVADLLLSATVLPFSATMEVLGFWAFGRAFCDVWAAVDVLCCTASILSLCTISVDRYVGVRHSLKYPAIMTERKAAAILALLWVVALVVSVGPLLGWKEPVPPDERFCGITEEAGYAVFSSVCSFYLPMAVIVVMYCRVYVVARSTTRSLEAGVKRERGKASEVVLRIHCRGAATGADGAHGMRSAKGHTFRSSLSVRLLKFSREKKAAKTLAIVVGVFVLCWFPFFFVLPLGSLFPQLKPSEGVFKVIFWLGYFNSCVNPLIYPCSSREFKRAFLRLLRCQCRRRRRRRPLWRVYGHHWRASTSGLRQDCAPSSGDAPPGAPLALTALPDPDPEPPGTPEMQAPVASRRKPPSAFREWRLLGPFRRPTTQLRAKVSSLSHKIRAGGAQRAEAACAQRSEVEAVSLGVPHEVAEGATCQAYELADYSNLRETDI
Briefly: Adrenergic α1D radioligand binding ([3H]Prazosin). Particulars: 0.1 μM compound; read-out: Percentage inhibition of ligand binding, Adrenergic α1D. How it is done: To evaluate in radioligand binding assays the activity of compounds of the invention, human recombinant adrenergic α1D receptor expressed in human embryonic kidney (HEK-293) cells (Kenny, B. et al, Br. J. Pharmacol. 115(6):981, 1995) in a 50 mM Tris-HCl buffer, pH 7.4, was used. Compounds of invention were incubated with 0.6 nM [^3H]Prazosin for 60 min at 25° C. Non-specific binding was estimated in the presence of 10 μM phentolamine. Receptor proteins were filtered and washed, the filters were then counted to determine [^3H]Prazosin specifically bound. Compounds were screened at 1 μM or lower, using 1% DMSO as vehicle. Biochemical assay results are presented as the percent inhibition of specific binding in Table 3.

Test [2] addresses T2, human recombinant adrenergic α2C receptor (Homo sapiens, UniProt P18825).
T2 construct: expressed in transfected cells; host or cells: insect Sf9 cells
T2 sequence (P18825 1-462): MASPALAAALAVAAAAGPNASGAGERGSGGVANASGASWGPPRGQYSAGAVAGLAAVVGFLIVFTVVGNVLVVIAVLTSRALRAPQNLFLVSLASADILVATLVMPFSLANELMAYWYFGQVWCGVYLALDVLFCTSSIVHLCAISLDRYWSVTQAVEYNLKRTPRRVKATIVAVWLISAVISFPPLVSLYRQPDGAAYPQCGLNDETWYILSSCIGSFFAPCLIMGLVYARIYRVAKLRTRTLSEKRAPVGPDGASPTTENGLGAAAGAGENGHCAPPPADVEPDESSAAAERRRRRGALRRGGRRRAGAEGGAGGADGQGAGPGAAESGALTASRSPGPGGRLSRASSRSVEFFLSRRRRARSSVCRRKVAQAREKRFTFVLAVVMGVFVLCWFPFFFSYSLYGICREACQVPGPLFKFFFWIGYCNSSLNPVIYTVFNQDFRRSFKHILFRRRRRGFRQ
The test can be described thus: Adrenergic α2C radioligand binding ([3H]MK-912). Particulars: 0.1 μM compound; read-out: Percentage inhibition of ligand binding, Adrenergic α2C. As to the method:
To evaluate in radioligand binding assays the activity of compounds of the invention, human recombinant adrenergic α2C receptor expressed in insect Sf9 cells (Uhlen, S. et al, J. Pharmacol. Exp. Ther. 271:1558, 1994) in a modified Tris-HCl buffer (50 mM Tris-HCl, pH 7.4, 12.5 mM MgCl2, 2 mM EDTA) was used. Compounds of the invention were incubated with 1 nM [^3H]MK-912 for 60 min at 25° C. Non-specific binding was estimated in the presence of 10 μM WB-4101. Receptor proteins were filtered and washed, the filters were then counted to determine [^3H]MK-912 specifically bound. Compounds were screened at 1 μM or lower, using 1% DMSO as vehicle. Biochemical assay results are presented as the percent inhibition of specific binding in Table 3.

For test [3], the target named is T3, human recombinant serotonin (5-Hydroxytryptamine) 5-HT6 receptor (Homo sapiens, UniProt P50406).
T3 construct: expressed in transfected cells; host or cells: HeLa
T3 sequence (P50406 whole entry): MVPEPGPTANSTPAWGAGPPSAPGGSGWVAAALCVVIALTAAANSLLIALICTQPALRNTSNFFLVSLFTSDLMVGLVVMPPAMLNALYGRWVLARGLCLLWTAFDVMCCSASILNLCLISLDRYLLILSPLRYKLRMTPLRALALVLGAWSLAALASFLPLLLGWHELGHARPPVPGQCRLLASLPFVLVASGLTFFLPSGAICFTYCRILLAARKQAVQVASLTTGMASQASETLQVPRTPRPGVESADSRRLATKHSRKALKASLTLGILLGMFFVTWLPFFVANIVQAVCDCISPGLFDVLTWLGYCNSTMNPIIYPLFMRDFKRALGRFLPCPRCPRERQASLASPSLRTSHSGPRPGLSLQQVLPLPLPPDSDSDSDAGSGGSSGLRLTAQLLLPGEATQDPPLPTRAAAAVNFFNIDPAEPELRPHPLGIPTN
Briefly: Serotonin 5-HT6 radioligand binding ([3H]LSD). Particulars: 0.1 μM compound; read-out: Percentage inhibition of ligand binding, Serotonin 5-HT6. How it is done: To evaluate in radioligand binding assays the activity of compounds of the invention, human recombinant serotonin (5-Hydroxytryptamine) 5-HT6 receptor expressed in human HeLa cells (Monsma, F. Jr. et al, Mol. Pharmacol. 43:320, 1993) in a modified Tris-HCl buffer (50 mM Tris-HCl, pH 7.4, 150 mM NaCl, 2 mM Ascorbic Acid, 0.001% BSA) was used. Compounds of the invention were incubated with 1.5 nM [3H]Lysergic acid diethylamide (LSD) for 120 min at 37° C. Non-specific binding was estimated in the presence of 5 μM Serotonin (5-HT). Receptor proteins were filtered and washed, the filters were then counted to determine [3H]LSD specifically bound. Compounds were screened at 1 μM or lower, using 1% DMSO as vehicle. Biochemical assay results are presented as the percent inhibition of specific binding in Table 5.

Structures are written as SMILES.

Broadly, the inhibition is the drop in the measured response relative to a control, in per cent. As to `Cc1ccc2c(c1)c1c(n2/C=C2\CCCc3ccccc32)CCN(C)C1` [i-3], the inhibition at 0.1 µM came to 43% in test [1], 72% in test [2] and 83% in test [3].
On to `Cc1ccc2c(c1)c1c(n2/C=C2/CCCc3ccccc32)CCN(C)C1` [i-2], for which the inhibition at 0.1 µM in test [1] came out at 86%; in test [2], 90%; in test [3] it was 102%.
